# Laboratory results as given in patent US20250051266A1, “Novel GLV-Phenolamide: Biosynthesis and Function in Protecting Plants from Herbivore Attack” (Max-Planck-Gesellschaft zur Förderung der Wissenschaften …, priority 2021, published 2025).
# Legend:
# [1] = molecular target: NaPPO2 (Nicotiana attenuata, UniProt A0A1J6IKE9); experiment: In vitro enzyme assay, substrate specificity of NaPPO2; format: biochemical; settings: incubated with NaPPO2 and (Z)-3-hexenal
# From the text: (§1) Extracted ion chromatograms (EIC) for doubly charged CP dimer (m/z 250.13) and m/z 347.19 in E. coli expressing NaPPO1 and NaPPO2 with CP and Z3H or (E)-2-hexenal. Compounds 1, 2, 3, 4 denote isomers of CP dimer; compounds 5, 6 denote isomers of m/z 347.19.
# (§2) FIG. 53 Substrate specificity of NaPPO1 and NaPPO2 enzymes. Overlay of total ion chromatograms (TIC) of enzyme assays for authentic chlorogenic acid (CGA std), N-coumaroylputrescine (CoP std), (Z)-3-hexenal or (E)-2-hexenal with purified NaPPO1/NaPPO2 from E. coli. Compounds 1 and 2 denote CGA and CoP; 3 and 4 denote contamination peaks from (Z)-3-hexenal and CoP standards, respectively.
# (§3) To test this hypothesis, purified NaPPO1, NaPPO2 and NaBBL2 proteins with N-terminal hexahistidine tags after expression in Escherichia coli were isolated (FIGS. 44-45). Incubation of either NaPPO1 or NaPPO2 (NaPPO1/2) with CP and (Z)-3-hexenal yielded a m/z 347.19 peak with identical MS/MS spectrum and retention time as the m/z 347.19 induced in N. attenuata leaves (FIG. 46). Additionally, by-products of doubly charged CP dimers at m/z 250.13 ([M+2H]2+, C26H36N4O62+) which are not detected in oral secretion-induced leaves of N. attenuata WT (Data 2) were also produced in vitro (FIG. 16 and FIG. 47). These doubly charged CP dimers were only produced when the quantities of the (Z)-3-hexenal substrate were lower than those of the CP substrate in vitro. […]
# (§4) In vitro assays of NaPPO1, NaPPO2, and NaBBL2: NaPPO1, NaPPO2, and NaBBL2 enzyme activity assays were performed by incubating 100 μg of the purified recombinant protein in 84 mM acetate buffer (pH 4.8) containing 20 mM (E)-N-caffeoylputrescine (BOC Sciences, catalogue #: B0005-053482) and 1 M cis-3-hexenal (Sigma, catalogue #: W256102-SAMPLE-K) or trans-2-hexenal (Sigma, catalogue #: W256005-1KG-K). During incubation of the enzyme reactions at 8° C., 1 μL of the reactions buffer was directly injected and analyzed by LC-MS every h to detect products. […]
# [2] = molecular target: T1, NaPPO1 (Nicotiana attenuata, UniProt A0A1J6JLI9); experiment: In vitro enzyme assay, substrate specificity of NaPPO1; format: biochemical; settings: incubated with NaPPO1 and (Z)-3-hexenal
# T1 sequence (A0A1J6JLI9 1-596): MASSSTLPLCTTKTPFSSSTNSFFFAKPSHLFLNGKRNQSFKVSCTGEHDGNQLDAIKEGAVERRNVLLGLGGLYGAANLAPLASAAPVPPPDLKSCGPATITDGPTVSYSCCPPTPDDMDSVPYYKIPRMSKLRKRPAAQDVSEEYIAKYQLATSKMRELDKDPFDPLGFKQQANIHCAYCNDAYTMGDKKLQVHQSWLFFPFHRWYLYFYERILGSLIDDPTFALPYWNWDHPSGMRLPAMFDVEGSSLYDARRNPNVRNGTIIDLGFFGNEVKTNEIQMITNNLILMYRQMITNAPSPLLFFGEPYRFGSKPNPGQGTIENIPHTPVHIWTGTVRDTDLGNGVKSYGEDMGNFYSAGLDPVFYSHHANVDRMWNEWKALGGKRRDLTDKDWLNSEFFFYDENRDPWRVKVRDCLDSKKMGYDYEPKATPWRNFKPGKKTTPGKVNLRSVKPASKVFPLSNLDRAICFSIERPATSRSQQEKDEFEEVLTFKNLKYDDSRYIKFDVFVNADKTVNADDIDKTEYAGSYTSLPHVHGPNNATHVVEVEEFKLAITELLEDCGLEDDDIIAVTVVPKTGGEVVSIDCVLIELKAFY
# From the text: as §1, §2, §3, §4
# Sequence of NaPPO2 (A0A1J6IKE9 entry or part of it): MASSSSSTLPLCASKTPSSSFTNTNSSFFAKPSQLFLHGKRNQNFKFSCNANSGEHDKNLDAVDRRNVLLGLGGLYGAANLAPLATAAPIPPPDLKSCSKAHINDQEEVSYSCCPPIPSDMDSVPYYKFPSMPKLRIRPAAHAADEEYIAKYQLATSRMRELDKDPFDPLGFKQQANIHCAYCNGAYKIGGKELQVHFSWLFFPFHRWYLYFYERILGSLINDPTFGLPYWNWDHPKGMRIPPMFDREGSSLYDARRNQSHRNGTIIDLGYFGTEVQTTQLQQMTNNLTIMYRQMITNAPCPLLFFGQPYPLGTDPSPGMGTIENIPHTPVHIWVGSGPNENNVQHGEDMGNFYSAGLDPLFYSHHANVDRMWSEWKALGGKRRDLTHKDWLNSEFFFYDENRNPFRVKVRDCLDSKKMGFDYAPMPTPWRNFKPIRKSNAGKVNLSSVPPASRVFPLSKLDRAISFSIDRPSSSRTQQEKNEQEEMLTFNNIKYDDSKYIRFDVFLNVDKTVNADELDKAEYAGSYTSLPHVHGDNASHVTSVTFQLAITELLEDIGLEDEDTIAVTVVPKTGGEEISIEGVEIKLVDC
substance,measurement,setting,value
N-coumaroylputrescine [CoP],acceptance as substrate (new products),[1],not accepted as substrates
same,acceptance as substrate (new products),[2],not accepted as substrates
